Key:
STS subtypes = conditions: randomised phase II trial; cited from earlier work
advanced STS = conditions: 1st line, in combination with doxorubicin; cited from earlier work
[1] = test system: advanced soft tissue sarcoma; assay: RMH-SARC retrospective cohort: advanced STS patients treated with pazopanib, PFS, OS and RECIST 1.1 response; type: in vivo, human
Excerpt: Collection and analysis of anonymised archival FFPE tissue and associated clinical data was approved in as a sub-study protocol amendment to the Royal Marsden-sponsored Elucidation of a Molecular signature of Pazopanib Response in Advanced soft tissue Sarcoma including solitary fibrous tumours (EMPRASS) study. (RMH Committee for Clinical Research reference 4107, NHS Research Ethic Committee reference 14/WA/0164). This cohort is referred to as RMH-SARC in this manuscript.
Patients were retrospectively identified for inclusion by search of institutional database and electronic patient records compiled during routine clinical practice. Eligibility criteria for inclusion were: i) histopathological diagnosis of soft tissue tumour as confirmed by contemporaneous report by specialist sarcoma histopathologist; ii) received at least one dose of pazopanib for treatment of unresectable or advanced STS; iii) available FFPE tumour specimen, obtained from patient prior to first dose of pazopanib. Treatment and response monitoring was as per standard institutional practice, with pazopanib at 800 mg once daily until disease progression, intolerable toxicity or significant clinical deterioration. Dose interruption and/or reduction were instigated based on standard institutional guidelines and the discretion of the treating physician. Baseline clinico-pathological characteristics and survival data were collected on retrospective review of contemporaneous electronic medical records. All related radiological imaging was retrospectively reviewed and disease response assessed according to RECIST 1.1. This manuscript is written according to the Reporting Recommendations for Tumor Marker Prognostic Studies (REMARK) guidelines15.
The stepwise primary objectives were to assess whether a surrogate of two immunohistochemical markers (FGFR1 and PDGFRA) and TP53 mutation status had statistical significant prognostic information for advanced STS. In this event, the two biomarkers panel were tested to determine if there is added statistically significant prognostic information to standard clinicopathological variables in multivariable comparisons. The secondary analyses included identification of biological subgroups based on gene expression profiles, and evaluation of the significance of these biological subgroups association with patient outcome. Progression free survival (PFS—defined as time in months from first dose of pazopanib to radiological disease progression or death from any cause) was the primary outcome endpoint, with overall survival (OS—defined as a time in months from first dose of pazopanib to death from any cause) as the secondary outcome endpoint. Data cut-off for survival follow-up was 30 Nov. 2016. Statistical analyses were performed by two senior statisticians. The Kaplan-Meier method was used to estimate PFS and OS, and the log-rank test to compare survival in different strata. Multivariable cox regression model was used to estimate the significance adjusted for the standard clinicopathological variables (including age, tumour grade, performance status and histological subtype). Proportional hazard assumption was tested using Schoenfeld residuals, and where deemed appropriate, Restricted Mean Survival was used. Interaction tests between FGFR1 and PDGFRA expression to predict for survival were evaluated for PFS and OS respectively. Likelihood ratio tests based on proportional hazards regression were used to test the prognostic information of all biomarkers. The quantification of the amount of prognostic information provided by one biomarker was assessed by the likelihood ratio χ^2 value (LRχ^2), and the additional information of one biomarker to biomarker score was measured by the increase of the likelihood ratio χ^2 value (ΔLRχ^2) obtained from the proportional hazards model.
Patients were identified by retrospective search of prospectively compiled institutional database and electronic patient records. […]

[2] = F-Lo/P-Hi (FGFR1-Lo/PDGFRA-Hi) subgroup
[3] = gene expression subgroup A (IHCneg, TP53 wt)

Compound: CNC(=O)c1cc(Oc2ccc(NC(=O)Nc3ccc(Cl)c(C(F)(F)F)c3)c(F)c2)ccn1 [regorafenib, Regorafenib]
- efficacy in STS subtypes (STS subtypes): efficacy in several STS subtypes but not adipocytic tumours

Compound: olaratumab
- OS benefit (advanced STS): marked OS benefit

Compound: Cc1ccc(Nc2nccc(N(C)c3ccc4c(C)n(C)nc4c3)n2)cc1S(N)(=O)=O [pazopanib, Pazopanib]
- patients who had died (overall survival event) ([1]; 31 of 38 patients, median follow-up 26.2 months): 82%
- patients with a progression-free survival event ([1]; 35 of 38 patients, median follow-up 26.2 months): 92%
- median OS [1, 2]: 1.7 months
- median PFS [1, 2]: 1.4 months
- PFS HR, multivariable analysis ([1]; F-Lo/P-Hi v. IHCneg, adjusted for clinico-pathological factors, 95% CI 3.86-40.72): 12.54
- OS HR, multivariable analysis ([1]; F-Lo/P-Hi v. IHCneg, adjusted, 95% CI 5.90-82.81): 22.11
- OS HR, univariate analysis ([1]; FGFR1-Lo/PDGFRA-Hi v. IHCneg, 95% CI 2.51-17.91): 6.70
- PFS HR, univariate analysis ([1]; FGFR1-Lo/PDGFRA-Hi v. IHCneg, 95% CI 3.58-25.94): 9.64
- progression as best response ([1]; RECIST 1.1, 17/38): 44.7%
- objective radiological response ([1]; RECIST 1.1, best response, 1/38): 2.6%
- stable disease ([1]; RECIST 1.1, best response, 20/38): 52.6%
- PFS HR, univariate analysis ([1]; TP53 mutated v. wildtype, all 38 patients, 95% CI 0.83-3.76, P 0.14): 1.77
- OS HR, univariate analysis ([1]; TP53 mutated v. wildtype, all 38 patients, 95% CI 1.15-5.51, P 0.02): 2.51
- PFS HR ([1]; TP53 mutation v. wildtype in 31 IHCneg cases, 95% CI 1.03-5.34, p=0.04): 2.34
- OS HR ([1]; TP53 mutation v. wildtype in 31 IHCneg cases, 95% CI 1.44-8.39, p=0.003): 3.47
- PFS HR, multivariable analysis ([1]; TP53 mutation v. wildtype, adjusted, 95% CI 1.45-10.86, p=0.007): 3.97
- OS HR, multivariable analysis ([1]; TP53 mutation v. wildtype, adjusted, 95% CI 2.56-24.41): 7.90
- median OS [1, 3]: 34.4 months
- median PFS [1, 3]: 12.8 months
- OS HR ([1]; high v. low PDGFRA expression, 95% CI 1.01-4.35, p=0.04): 2.08
- median PFS ([1]; patients with partial response or stable disease): 6.4 months
- OS HR ([1]; subgroup A v. subgroup B or C, 22 IHCnegTP53 wt patients, 95% CI 0.04-0.96, p=0.03): 0.20
- PFS HR ([1]; subgroup A v. subgroup B or C, 22 IHCnegTP53 wt patients, 95% CI 0.09-0.85, p=0.02): 0.27
- median OS ([1]; whole cohort, 38 patients): 9.5 months
- median PFS ([1]; whole cohort, 38 patients, pazopanib 800 mg once daily): 3.7 months

Reference: patent publication US12421556B2, “Materials and methods for stratifying and treating cancers” (The Institute of Cancer Research:Royal Cancer Hospital, priority 2017, dated 2025)
